Read-outs that look alike come from different tables or passages of the source.
How the values were obtained:
AKT1 WT = molecular target: T1, AKT1 WT (Homo sapiens, UniProt P31749); assay: Live cell AKT1 WT target engagement by NanoBRET competitive probe displacement in HEK293 cells; type: binding; conditions: 2 h at 37° C., read-out: AKT1 WT IC50
T1 construct: expressed in transfected cells; host or cells: HEK293

AKT2 = molecular target: T2, AKT2 (Homo sapiens, UniProt P31751); assay: Live cell AKT2 target engagement by NanoBRET competitive probe displacement in HEK293 cells; type: binding; conditions: 2 h at 37° C., read-out: AKT2 IC50
T2 construct: expressed in transfected cells; host or cells: HEK293
T2 sequence (P31751 whole entry): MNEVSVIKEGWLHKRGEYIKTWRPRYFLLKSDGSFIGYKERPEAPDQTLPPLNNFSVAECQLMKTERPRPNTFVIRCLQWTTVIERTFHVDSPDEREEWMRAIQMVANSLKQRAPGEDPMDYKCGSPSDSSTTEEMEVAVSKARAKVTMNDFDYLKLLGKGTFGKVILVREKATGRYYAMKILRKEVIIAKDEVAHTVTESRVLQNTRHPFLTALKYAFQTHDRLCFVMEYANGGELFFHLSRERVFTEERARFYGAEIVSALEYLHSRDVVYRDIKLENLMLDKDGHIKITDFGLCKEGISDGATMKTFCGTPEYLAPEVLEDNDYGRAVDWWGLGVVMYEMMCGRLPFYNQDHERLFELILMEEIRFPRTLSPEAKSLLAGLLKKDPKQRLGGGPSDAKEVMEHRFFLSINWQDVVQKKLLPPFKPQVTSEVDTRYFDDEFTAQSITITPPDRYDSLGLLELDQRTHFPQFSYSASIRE

[1] = NanoBRET live cell target engagement, HEK293 cells
[2] = NanoBRET competitive probe displacement, live HEK293 cells

T1 sequence (P31749 whole entry): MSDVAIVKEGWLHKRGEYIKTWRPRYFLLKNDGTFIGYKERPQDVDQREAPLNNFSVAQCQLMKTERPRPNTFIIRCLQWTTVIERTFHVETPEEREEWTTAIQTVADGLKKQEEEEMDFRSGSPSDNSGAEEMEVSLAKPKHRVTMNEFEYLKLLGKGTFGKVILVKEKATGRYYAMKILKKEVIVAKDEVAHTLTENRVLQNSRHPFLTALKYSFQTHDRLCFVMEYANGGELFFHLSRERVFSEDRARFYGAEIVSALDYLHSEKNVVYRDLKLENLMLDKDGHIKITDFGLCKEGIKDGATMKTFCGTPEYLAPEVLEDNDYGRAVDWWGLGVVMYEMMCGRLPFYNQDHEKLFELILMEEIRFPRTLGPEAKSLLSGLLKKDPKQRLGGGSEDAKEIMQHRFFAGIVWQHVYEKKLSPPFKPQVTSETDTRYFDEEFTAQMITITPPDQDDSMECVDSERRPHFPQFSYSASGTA

SMILES	IC50 (AKT1 WT; [1])	IC50 (AKT2; [1])	IC50 (AKT1 WT; [2])	IC50 (AKT2; [2])
Cc1ncccc1OCC1CCc2cc(-n3c(-c4cccnc4N)nc4ccc(-n5cccn5)nc43)ccc21 (single isomer, unassigned) [Compound 253, (*)-3-(3-(1-(((2-methylpyridin-3-yl)oxy)methyl)-2,3-dihydro-1H-inden-5-yl)-5-(1H-pyrazol-1-yl)-3H-imidazo[4,5-b]pyridin-2-yl)pyridin-2-amine]	65.8 nM	2120 nM		
Cn1ccc(N2CCC(N[C@@H]3c4ccc(-n5c(-c6cccnc6N)nc6ccc(-n7cccn7)nc65)cc4CC3F)CC2)n1 (stereo partly drawn) [Compound 519]			39.2 nM	1220 nM
Cc1nnn([C@H]2CCc3cc(-n4c(-c5cccnc5N)nc5ccc(-n6cccn6)nc54)ccc32)c1C [Compound 249, (S)-3-(3-(1-(4,5-dimethyl-1H-1,2,3-triazol-1-yl)-2,3-dihydro-1H-inden-5-yl)-5-(1H-pyrazol-1-yl)-3H-imidazo[4,5-b]pyridin-2-yl)pyridin-2-amine]	21.8 nM	368 nM		
Nc1ncccc1-c1nc2ccc(C#CC3CCC3)nc2n1-c1ccc2c(c1)CC[C@@H]2NC(=O)c1ccc(C(F)F)nc1 [Compound 226]	45.5 nM	2020 nM		
COc1csc(-c2ccc3nc(-c4cccnc4N)n(-c4ccc5c(c4)CC(F)[C@@H]5NC4CCN(C(=O)C5CC5)CC4)c3n2)n1 (stereo partly drawn) [Compound 559]			5.67 nM	268 nM
CC(=O)N1CCC(N[C@H]2CCc3cc(-n4c(-c5cccnc5N)nc5ccc(-n6cccn6)nc54)ccc32)CC1 [Compound 109]	257 nM	5830 nM		
Nc1ncccc1-c1nc2ccc(-n3nccn3)nc2n1-c1ccc2c(c1)CC[C@@H]2NC(=O)c1cnc(C(F)(F)F)s1 [Compound 526]			20.2 nM	1260 nM
Nc1ncccc1-c1nc2ccc(-n3cccn3)nc2n1-c1ccc2c(c1)CC[C@@H]2n1cc(-c2ccccn2)nn1 [Compound 200]	14.7 nM	212 nM		
Nc1ncccc1-c1nc2ccc(-n3cccn3)nc2n1-c1ccc2c(c1)CC[C@@H]2NC1Cc2cccnc2C1 (stereo partly drawn) [Compound 530]			21.2 nM	422 nM
COC1CCN(c2ccn(-c3ccc4nc(-c5cccnc5N)n(-c5ccc6c(c5)CC(F)[C@@H]6NC5CCN(C(=O)C6CC6)CC5)c4n3)n2)CC1 (stereo partly drawn) [Compound 546]			9.86 nM	221 nM
Nc1ncccc1-c1nc2ccc(-n3cccn3)nc2n1-c1ccc2c(c1)CC[C@@H]2NC1CCc2cc(O)ccc21 (single isomer, unassigned) [Compound 499]			45.6 nM	897 nM
Nc1ncccc1-c1nc2ccc(-n3ncc(OC(F)F)n3)nc2n1-c1ccc2c(c1)CC[C@@H]2NC(=O)c1cnc(C(F)F)s1 [Compound 595]			15 nM	520 nM
COc1nccc2c1CCC2N[C@H]1CCc2cc(-n3c(-c4cccnc4N)nc4ccc(-n5cccn5)nc43)ccc21 (stereo partly drawn) [Compound 508]			75.9 nM	627 nM
COCc1ccn(-c2ccc3nc(-c4cccnc4N)n(-c4ccc5c(c4)CC[C@@H]5NC4CCN(C(=O)C5CC5)CC4)c3n2)n1 [Compound 590]			45.2 nM	1540 nM
Nc1ncccc1-c1nc2ccc(-n3cccn3)nc2n1-c1ccc2c(c1)CC[C@@H]2NC1CC2(C1)CN(c1ccccn1)C2 [Compound 448]			47.8 nM	1760 nM

Other lines, results leading:

IC50 (AKT1 WT; [1])	IC50 (AKT2; [1])	IC50 (AKT1 WT; [2])	IC50 (AKT2; [2])	SMILES
		19.6 nM	561 nM	Cc1ccc(C(=O)N[C@H]2CCc3cc(-n4c(-c5cccnc5N)nc5ccc(-n6cnc(C)n6)nc54)ccc32)cn1 [Compound 417, (S)—N-(5-(2-(2-aminopyridin-3-yl)-5-(3-methyl-1H-1,2,4-triazol-1-yl)-3H-imidazo[4,5-b]pyridin-3-yl)-2,3-dihydro-1H-inden-1-yl)-6-methylnicotinamide]
3.42 nM	30.4 nM			Nc1ncccc1-c1nc2ccc(-n3cccn3)nc2n1-c1ccc2c(c1)CC[C@@H]2NC(=O)c1ccn2ccnc2c1 [Compound 255]
18.2 nM	107 nM			Cc1cc(C(=O)N[C@H]2CCc3cc(-n4c(-c5cccnc5N)nc5ccc(-n6cccn6)nc54)ccc32)c(C)nc1C [Compound 150]
22.1 nM	351 nM			Nc1ncccc1-c1nc2ccc(-n3cccn3)nc2n1-c1ccc2c(c1)CC[C@@H]2NC(=O)c1ccc(F)cc1 [Compound 310]
65.3 nM	1540 nM			Cc1cnc(C(=O)N[C@H]2CCc3cc(-n4c(-c5cccnc5N)nc5ccc(-n6cccn6)nc54)ccc32)cn1 [Compound 185]
12.9 nM	73.2 nM			CNC(=O)c1cccc(C(=O)N[C@H]2CCc3cc(-n4c(-c5cccnc5N)nc5ccc(-n6cccn6)nc54)ccc32)c1 [Compound 292]
50.3 nM	1580 nM			COCc1ncccc1C(=O)N[C@H]1CCc2cc(-n3c(-c4cccnc4N)nc4ccc(-n5cccn5)nc43)ccc21 [Compound 149]
106 nM	1910 nM			Nc1ncccc1-c1nc2ccc(-n3cccn3)nc2n1-c1ccc2c(c1)CC[C@@H]2NC(=O)c1cccnc1OC(F)(F)F [Compound 78]
66.2 nM	3230 nM			Cc1nccnc1C(=O)N[C@H]1CCc2cc(-n3c(-c4cccnc4N)nc4ccc(-n5cccn5)nc43)ccc21 [Compound 118]
9.15 nM	102 nM			Nc1ncccc1-c1nc2ccc(-n3cccn3)nc2n1-c1ccc2c(c1)CC[C@@H]2NC(=O)c1cnc(C(F)F)nc1 [Compound 114]
25.5 nM	122 nM			Nc1ncccc1-c1nc2ccc(-n3cccn3)nc2n1-c1ccc2c(c1)CC[C@@H]2NC(=O)c1ccc2[nH]nnc2c1 [Compound 190]
> 1000 nM	2550 nM			CN(C(=O)N[C@H]1CCc2cc(-n3c(-c4cccnc4N)nc4ccc(-n5cccn5)nc43)ccc21)c1ccccc1 [Compound 132, (S)-3-(5-(2-(2-aminopyridin-3-yl)-5-(1H-pyrazol-1-yl)-3H-imidazo[4,5-b]pyridin-3-yl)-2,3-dihydro-1H-inden-1-yl)-1-methyl-1-phenylurea]
76.2 nM	1340 nM			Nc1ncccc1-c1nc2ccc(-n3cccn3)nc2n1-c1ccc2c(c1)CC[C@@H]2NC(=O)Nc1ccccc1 [Compound 133]
> 1000 nM	> 10000 nM			CC(C)NC(=O)N[C@H]1CCc2cc(-n3c(-c4cccnc4N)nc4ccc(-n5cccn5)nc43)ccc21 [Compound 134, (S)-1-(5-(2-(2-aminopyridin-3-yl)-5-(1H-pyrazol-1-yl)-3H-imidazo[4,5-b]pyridin-3-yl)-2,3-dihydro-1H-inden-1-yl)-3-isopropylurea]
13.2 nM	52.6 nM			Nc1ncccc1-c1nc2ccc(-n3cccn3)nc2n1-c1ccc2c(c1)CC[C@@H]2NC(=O)c1ccc(CF)nc1 [Compound 98]
